# Test results: patent publication US20110275635A1 (priority 2009, published 2011)
# Read-outs that look alike come from different tables or passages of the source.
# How the values were obtained:
# [1] = molecular target: B. anthracis NADs (Bacillus anthracis, UniProt Q81RP3); format: biochemical
# [2] = tested on: Bacillus anthracis Sterne; test: microbe, parasite or virus in culture; format: cell-based
# [3] = tested on: B. anthracis; test: microbe, parasite or virus in culture; format: cell-based; settings: Bacillus anthracis, read-out: MIC (μg/mL) B. anthracis
# [4] = tested on: S. aureus; test: microbe, parasite or virus in culture; format: cell-based; settings: Staphylococcus aureus, read-out: MIC (μg/mL) S. aureus
# [5] = tested on: E. faecalis; test: microbe, parasite or virus in culture; format: cell-based; settings: Enterococcus faecalis, read-out: MIC (μg/mL) E. faecalis
# [6] = tested on: B. cereus; test: microbe, parasite or virus in culture; format: cell-based; settings: Bacillus cereus, read-out: MIC (μg/mL) B. cereus
# [7] = tested on: S. aureus MRSA; test: microbe, parasite or virus in culture; format: cell-based; settings: Staphylococcus aureus, read-out: MIC (μg/mL) S. aureus MRSA
# [8] = tested on: E. faecium VRE; test: microbe, parasite or virus in culture; format: cell-based; settings: Enterococcus faecium, read-out: MIC (μg/mL) E. faecium VRE
# [9] = tested on: S. pneumoniae; test: microbe, parasite or virus in culture; format: cell-based; settings: Streptococcus pneumoniae, read-out: MIC (μg/mL) S. pneumoniae
# [10] = In vivo toxicity, maximum tolerated dose; settings: female, BALB/c, mouse, intraperitoneal
# [11] = Pharmacokinetics, plasma concentration after intraperitoneal injection
# [12] = molecular target: hNaMNAT-1 (Homo sapiens, UniProt Q9HAN9); test: Human NAMNAT inhibition in vitro; format: biochemical
# [13] = tested on: HCC1937; test: In vitro human breast cancer cell growth inhibition; format: cell-based
# [14] = tested on: MDA-MB-436; test: as above; format: cell-based
# [15] = tested on: SUM159; test: as above; format: cell-based
# [16] = tested on: IMR90; test: In vitro inhibition of normal human cells; format: cell-based; settings: IMR-90
# [17] = tested on: HEK293; test: In vitro inhibition of normal human cells; format: cell-based
# [18] = tested on: BEAS-23; test: In vitro inhibition of normal human cells; format: cell-based; settings: read-out: In Vitro Inhibition Normal Human Cells (IC50, μM) BEAS-23
# [19] = tested on: Hep-G2; test: In vitro inhibition of normal human cells; format: cell-based; settings: HepG2
# [20] = HCC1937 cells, read-out: In Vitro Human Breast Cancer Inhibition (IC50, μM) HCC1937
# [21] = MDA-MB-436 cells, read-out: In Vitro Human Breast Cancer Inhibition (IC50, μM) MDA-MB-436
# [22] = SUM159 cells, read-out: In Vitro Human Breast Cancer Inhibition (IC50, μM) SUM159
# Sequence of B. anthracis NADs (Q81RP3 whole entry, looked up): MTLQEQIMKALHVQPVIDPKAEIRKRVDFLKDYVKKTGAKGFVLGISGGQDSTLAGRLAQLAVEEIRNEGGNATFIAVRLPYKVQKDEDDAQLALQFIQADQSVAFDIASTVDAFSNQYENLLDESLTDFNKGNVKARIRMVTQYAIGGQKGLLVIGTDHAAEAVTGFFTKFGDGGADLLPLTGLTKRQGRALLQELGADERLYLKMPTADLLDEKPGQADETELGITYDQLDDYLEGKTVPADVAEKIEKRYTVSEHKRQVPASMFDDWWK
# Sequence of hNaMNAT-1 (Q9HAN9 whole entry): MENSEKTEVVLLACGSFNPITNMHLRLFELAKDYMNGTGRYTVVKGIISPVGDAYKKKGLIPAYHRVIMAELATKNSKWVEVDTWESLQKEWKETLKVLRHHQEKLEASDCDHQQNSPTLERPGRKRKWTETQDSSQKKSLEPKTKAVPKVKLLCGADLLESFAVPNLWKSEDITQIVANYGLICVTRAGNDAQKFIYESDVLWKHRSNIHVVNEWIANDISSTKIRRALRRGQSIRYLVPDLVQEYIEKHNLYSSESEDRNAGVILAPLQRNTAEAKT
Compound,MTD [10] [mg/kg],IC50 [12] [µM],"IC50 [13, 20] [µM]","IC50 [14, 21] [µM]","IC50 [15, 22] [µM]",IC50 [16] [µM],IC50 [17] [µM],IC50 [18] [µM],IC50 [19] [µM],further results
O=C(Nc1ccc([N+](=O)[O-])cc1)Nc1ccc(S(=O)(=O)Nc2ccc(Cl)c(Cl)c2)cc1 [Compound 5824],25,,,,,,,,,"activity against NADs (in words) [1]: good activities; IC50 ([1]; read-out: IC50): 10 µM; IC50 ([1]; read-out: NADs IC50): 10 µM; activity against B. anthracis (in words) [2]: good activities; MIC ([2]; Bacillus anthracis, read-out: B.a. MIC (μM)): 1.9 µM; MIC [3]: 1.2 µg/mL; MIC [4]: 10.8 µg/mL; MIC [5]: 14 µg/mL; MIC [6]: 0.78 µg/mL; MIC [7]: 5.5 µg/mL; MIC [8]: 10.8 µg/mL; MIC [9]: 3.6 µg/mL; time to highest plasma drug concentration ([11]; 25 mg/kg (Bid), second dose 8 hr after first, time after first dose): about 12 hours; time to highest plasma drug concentration ([11]; 25 mg/kg (QD), mouse plasma): 2 h; time to highest plasma drug concentration ([11]; 50 mg/kg (QD), mouse plasma): 2 h"
O=C(Nc1ccc(S(=O)(=O)Nc2ccc(Cl)c(Cl)c2)cc1)Nc1cccc([N+](=O)[O-])c1 [Compound 6333],250,,,,,,,,,
O=C(Nc1ccc(S(=O)(=O)Nc2ccccc2C(F)(F)F)cc1)Nc1cccc([N+](=O)[O-])c1 [Compound 6572],,> 600,,,,,,,,"IC50 ([13]; HCC1937, read-out: In Vitro Human Breast Cancer Inhibition (IC50, μM) HCC1937): 35 µM; IC50 ([14]; MDA-MB-436, read-out: In Vitro Human Breast Cancer Inhibition (IC50, μM) MDA-MB-436): 35 µM; IC50 ([15]; SUM159, read-out: In Vitro Human Breast Cancer Inhibition (IC50, μM) SUM159): 10 µM"
O=C(Nc1ccc(O)cc1)Nc1ccc(S(=O)(=O)Nc2ccc(Cl)c(Cl)c2)cc1 [Compound 6400],,13,95,95,50,> 200,> 200,> 200,112,
O=C(Nc1ccc(S(=O)(=O)Nc2ccc(Cl)c(Cl)c2)cc1)Nc1ccccc1O [Compound 6399],,19,40,,,181,163,93,84,
CCOc1ccc(NS(=O)(=O)c2ccc(NC(=O)CCC(=O)c3ccccc3)cc2)cc1 [Compound 6484],> 500,,,,,,,,,
O=[N+]([O-])c1cc(S(=O)(=O)NCc2ccco2)ccc1NNC(=S)Nc1cccc(C(F)(F)F)c1 [Compound 6034],,28,60,70,50,148,176,186,90,
Nc1ccc(NS(=O)(=O)c2ccc(NC(=O)Nc3ccc(Cl)c(Cl)c3)cc2)cc1 [Compound 6010],,> 600,20,25,10,> 200,> 200,> 200,> 200,
